Assay results from US20240174637A1, “DEGRADERS OF GRK2 AND USES THEREOF” (Sonata Therapeutics, Inc., priority 2021, published 2024).
pIC50: −log10 of the molar value. Structures can show the parent of a compound that is named as a salt.

Legend:
GRK2 [1] = biological target: T1, GRK2 (Homo sapiens, UniProt P25098); assay: GRK2 Inhibition Assay (TR-FRET, Example 1); format: biochemical; settings: Table 4; Example 1 assay; read-out: Enzymatic GRK2 IC50: Av IC50 GRK2
T1 sequence (P25098 1-689): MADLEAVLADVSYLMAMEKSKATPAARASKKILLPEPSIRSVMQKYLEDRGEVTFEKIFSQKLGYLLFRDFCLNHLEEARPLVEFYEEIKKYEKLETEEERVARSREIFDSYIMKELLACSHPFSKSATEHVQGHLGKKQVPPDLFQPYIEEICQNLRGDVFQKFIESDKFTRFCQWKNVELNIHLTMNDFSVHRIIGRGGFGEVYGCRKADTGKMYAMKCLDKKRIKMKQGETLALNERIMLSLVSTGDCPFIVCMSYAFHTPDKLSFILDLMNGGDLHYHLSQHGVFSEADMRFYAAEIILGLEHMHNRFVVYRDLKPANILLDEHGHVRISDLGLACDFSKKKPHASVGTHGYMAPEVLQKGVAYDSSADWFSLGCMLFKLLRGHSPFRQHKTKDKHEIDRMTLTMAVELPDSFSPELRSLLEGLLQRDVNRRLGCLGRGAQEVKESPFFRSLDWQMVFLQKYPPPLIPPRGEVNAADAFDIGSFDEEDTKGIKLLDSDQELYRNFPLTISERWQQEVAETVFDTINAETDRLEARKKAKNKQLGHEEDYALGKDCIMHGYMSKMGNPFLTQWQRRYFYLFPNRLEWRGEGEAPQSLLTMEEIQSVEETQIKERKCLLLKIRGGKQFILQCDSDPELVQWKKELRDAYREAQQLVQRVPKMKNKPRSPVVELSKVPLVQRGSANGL
Procedure, shortened: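 GRK2 (1 nM) pre-incubated 30 min RT with compounds in HEPES/MgCl2/DTT/Tween-20/EGTA buffer, then reacted 90 min RT with 7 μM ATP and 50 nM ULight-TopoIIα substrate. Stopped with EDTA plus Eu anti-TopoIIα antibody; TR-FRET read after 60 min.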

PAXF1657 EV = assay: 7-day cellular proliferation assay (CellTiter-Glo), PAXF1657 EV; format: cell-based; settings: proliferation, read-out: GeoMean IC50 (UM) PAXF1657 EV
Procedure, shortened: (§1)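 PAXF1657 pancreatic cancer cells (GRK2-overexpressing vs empty vector; CRISPR GRK2 knockout vs non-targeting control) were seeded at 500 cells/well in RPMI1640/10% FBS, then given a 10-point series, 30 μM-0.0002 μM in 0.3% DMSO. Medium and compound were refreshed after 3 days; CellTiter-Glo luminescence was read at day 7.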

PAXF1657 KO Clone #4 = assay: 7-day cellular proliferation assay (CellTiter-Glo), PAXF1657 KO Clone #4; format: cell-based; settings: proliferation, read-out: GeoMean IC50 (uM) PAXF1657 KO Clone #4
Procedure, shortened: as §1

GRK2 [2] = biological target: T1, GRK2; assay: GRK2 Degradation Assay and Western Blot in PAXF1657 cells; format: cell-based; parameters: endogenous in cells; host or cells: PAXF1657; settings: for inhibition at 0.3 µM: Conc 0.3 uM; for inhibition at 0.3 µM / inhibition at 1 µM / inhibition at 3 µM: read-out: Degradation Assay - 3 point: Degradation (%); for inhibition at 1 µM: Conc 1 uM; for inhibition at 3 µM: Conc 3 uM; for DC50: PAXF1657, 24 h, read-out: Degradation Assay - Full Dose Response: IC50 (uM) [cell line: PAXF1657, time point: 24 h]
Procedure, shortened: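 PAXF1657 cells grown to 70% confluency, then treated with compounds at 0–10 μM for 6 to 24 h at 37 °C. Lysates in PBS with 1% NP40 run on SDS-PAGE. GRK2 protein detected by western blot with β-actin as loading reference, using ECL chemiluminescence.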

pIC50 (GRK2 [1]) | inhibition at 0.3 µM (GRK2 [2]) [%] | inhibition at 1 µM (GRK2 [2]) [%] | inhibition at 3 µM (GRK2 [2]) [%] | SMILES | pIC50 (PAXF1657 EV) | IC50 (PAXF1657 KO Clone #4) [µM] | DC50 (GRK2 [2]) [µM]
7.79 | 90 | 93.7 | 89 | C[C@@H](NC(=O)c1cccc(NCc2nnc(-c3ccncn3)n2C)c1)c1cccc(C(=O)N2CCC(CCCN3CCN(c4ccc5c(c4)CN(C4CCC(=O)NC4=O)C5=O)CC3)CC2)c1 (stereo partly drawn) [Compound D119, N-((1R)-1-(3-(4-(3-(4-(2-(2,6-dioxopiperidin-3-yl)-1-oxoisoindolin-5-yl)piperazin-1-yl)propyl)piperidine-1-carbonyl)phenyl)ethyl)-3-((4-methyl-5-(pyrimidin-4-yl)-4H-1,2,4-triazol-3-yl)methylamino)benzamide hydrochloride] | 6.94 | 2.73 | 
8.02 | 90.8 | 94.8 | 89.6 | C[C@@H](NC(=O)c1cccc(NCc2nnc(-c3ccncn3)n2C)c1)c1cccc(C(=O)N2CCC(CCN3CCN(c4ccc5c(c4)CN(C4CCC(=O)NC4=O)C5=O)CC3)CC2)c1 (stereo partly shown) [Compound D120] | 7.40 | > 30 | 
7.35 | 7.97 | 24 | 53.8 | C[C@@H](NC(=O)c1cccc(NCc2nnc(-c3ccncn3)n2C)c1)c1cccc(C(=O)N2CC(CN3CCN(c4ccc5c(c4)CN(C4CCC(=O)NC4=O)C5=O)CC3)C2)c1 (stereo partly drawn) [Compound D121, N-((1R)-1-(3-(3-((4-(2-(2,6-dioxopiperidin-3-yl)-1-oxoisoindolin-5-yl)piperazin-1-yl)methyl)azetidine-1-carbonyl)phenyl)ethyl)-3-((4-methyl-5-(pyrimidin-4-yl)-4H-1,2,4-triazol-3-yl)methylamino)benzamide hydrochloride] | 4.94 | > 30 | 
7.91 | 84.9 | 90.6 | 92.5 | C[C@@H](NC(=O)c1cccc(NCc2nnc(-c3ccncn3)n2C)c1)c1cccc(C(=O)N2CCC(CN3CCN(c4ccc5c(c4)CN(C4CCC(=O)NC4=O)C5=O)CC3)CC2)c1 (stereo partly drawn) [Compound D122, N-((1R)-1-(3-(4-((4-(2-(2,6-dioxopiperidin-3-yl)-1-oxoisoindolin-5-yl)piperazin-1-yl)methyl)piperidine-1-carbonyl)phenyl)ethyl)-3-((4-methyl-5-(pyrimidin-4-yl)-4H-1,2,4-triazol-3-yl)methylamino)benzamide hydrochloride] | 7.00 | > 30 | 
8.18 | 81.6 | 85.2 | 84 | C[C@@H](NC(=O)c1cccc(NCc2nnc(-c3ccncn3)n2C)c1)c1cccc(OCCCN2CCN(c3ccc4c(c3)CN(C3CCC(=O)NC3=O)C4=O)CC2)c1 (stereo partly drawn) [Compound D123, N-((1R)-1-(3-(3-(4-(2-(2,6-dioxopiperidin-3-yl)-1-oxoisoindolin-5-yl)piperazin-1-yl)propoxy)phenyl)ethyl)-3-((4-methyl-5-(pyrimidin-4-yl)-4H-1,2,4-triazol-3-yl)methylamino)benzamide hydrochloride] | > 9.34 | > 30 | 0.03
8.34 | 93.2 | 94.1 | 88 | C[C@@H](NC(=O)c1cccc(NCc2nnc(-c3ccncn3)n2C)c1)c1cccc(OCCCCCCOCCN2CCN(c3ccc4c(c3)CN(C3CCC(=O)NC3=O)C4=O)CC2)c1 (stereo partly drawn) [Compound D126, N-((1R)-1-(3-(6-(2-(4-(2-(2,6-dioxopiperidin-3-yl)-1-oxoisoindolin-5-yl)piperazin-1-yl)ethoxy)hexyloxy)phenyl)ethyl)-3-((4-methyl-5-(pyrimidin-4-yl)-4H-1,2,4-triazol-3-yl)methylamino)benzamide] | 6.89 | > 30 | 0.04
7.79 | -23.2 | 8.53 | -38.6 | C[C@@H](NC(=O)c1cccc(NCc2nnc(-c3ccncn3)n2C)c1)c1cccc(OCCN2CCN(c3ccc4c(c3)CN(C3CCC(=O)NC3=O)C4=O)CC2)c1 (stereo partly drawn) [Compound D128, N-((1R)-1-(3-(2-(4-(2-(2,6-dioxopiperidin-3-yl)-1-oxoisoindolin-5-yl)piperazin-1-yl)ethoxy)phenyl)ethyl)-3-((4-methyl-5-(pyrimidin-4-yl)-4H-1,2,4-triazol-3-yl)methylamino)benzamide] | 6.10 | > 30 | 

SMILES | pIC50 (GRK2 [1]) | inhibition at 0.3 µM (GRK2 [2]) [%] | inhibition at 1 µM (GRK2 [2]) [%] | inhibition at 3 µM (GRK2 [2]) [%] | pIC50 (PAXF1657 EV) | IC50 (PAXF1657 KO Clone #4) [µM] | DC50 (GRK2 [2]) [µM]
C[C@@H](NC(=O)c1cccc(NCc2nnc(-c3ccncn3)n2C)c1)c1ccc(OCCCCCCOCCOCCOCCCC(=O)N2CCN(c3ccc4c(c3)CN(C3CCC(=O)NC3=O)C4=O)CC2)cc1 (stereo partly drawn) [Compound D124, N-((1R)-1-(4-(6-(2-(2-(4-(4-(2-(2,6-dioxopiperidin-3-yl)-1-oxoisoindolin-5-yl)piperazin-1-yl)-4-oxobutoxy)ethoxy)ethoxy)hexyloxy)phenyl)ethyl)-3-((4-methyl-5-(pyrimidin-4-yl)-4H-1,2,4-triazol-3-yl)methylamino)benzamide] | 8.27 | 80.5 | 90.7 | 89.3 | 7.05 | > 30 | 0.1
C[C@@H](NC(=O)c1cccc(NCc2nnc(-c3ccncn3)n2C)c1)c1ccc(OCCCCCCOCCOCCOCCCC(=O)N2CCN(c3cc4c(cc3F)C(=O)N(C3CCC(=O)NC3=O)C4=O)CC2)cc1 (stereo partly drawn) [Compound D125, N-((1R)-1-(4-(6-(2-(2-(4-(4-(2-(2,6-dioxopiperidin-3-yl)-6-fluoro-1,3-dioxoisoindolin-5-yl)piperazin-1-yl)-4-oxobutoxy)ethoxy)ethoxy)hexyloxy)phenyl)ethyl)-3-((4-methyl-5-(pyrimidin-4-yl)-4H-1,2,4-triazol-3-yl)methylamino)benzamide] | 8.95 | 71.9 | 82.5 | 76.4 | 6.96 | 26.6 | 
C[C@@H](NC(=O)c1cccc(NCc2nnc(-c3ccncn3)n2C)c1)c1ccc(OCCCCCCOCCOCCOCCCC(=O)Nc2cccc3c2CN(C2CCC(=O)NC2=O)C3=O)cc1 (stereo partly drawn) [Compound D127, N-((1R)-1-(4-(6-(2-(2-(4-(2-(2,6-dioxopiperidin-3-yl)-1-oxoisoindolin-4-ylamino)-4-oxobutoxy)ethoxy)ethoxy)hexyloxy)phenyl)ethyl)-3-((4-methyl-5-(pyrimidin-4-yl)-4H-1,2,4-triazol-3-yl)methylamino)benzamide] | 8.66 | 81.4 | 82.1 | 78.5 | 7.00 | > 30 | 
C[C@@H](NC(=O)c1cccc(NCc2nnc(-c3ccncn3)n2C)c1)c1cccc(OCCCCN2CCN(c3ccc4c(c3)CN(C3CCC(=O)NC3=O)C4=O)CC2)c1 (stereo partly drawn) [Compound D129, N-((1R)-1-(3-(4-(4-(2-(2,6-dioxopiperidin-3-yl)-1-oxoisoindolin-5-yl)piperazin-1-yl)butoxy)phenyl)ethyl)-3-((4-methyl-5-(pyrimidin-4-yl)-4H-1,2,4-triazol-3-yl)methylamino)benzamide] | 7.55 | 79.8 | 77.5 | 70.6 | 7.00 | > 30 | 0.08
